In ChEMBL document CHEMBL4359918, “Discovery of tissue selective liver X receptor agonists for the treatment of atherosclerosis without causing hepatic lipogenesis” (Eur J Med Chem, 2019) one finds fold induction, Activity and inhibition data, which are given here for 1 compound.

The source made the active and inactive calls. The rule behind the calls is not given here.

In data set [1] the target is T1, LXRalpha (Oxysterols receptor LXR-alpha) (Homo sapiens, UniProt Q13133).
T1 sequence (Q13133 whole entry): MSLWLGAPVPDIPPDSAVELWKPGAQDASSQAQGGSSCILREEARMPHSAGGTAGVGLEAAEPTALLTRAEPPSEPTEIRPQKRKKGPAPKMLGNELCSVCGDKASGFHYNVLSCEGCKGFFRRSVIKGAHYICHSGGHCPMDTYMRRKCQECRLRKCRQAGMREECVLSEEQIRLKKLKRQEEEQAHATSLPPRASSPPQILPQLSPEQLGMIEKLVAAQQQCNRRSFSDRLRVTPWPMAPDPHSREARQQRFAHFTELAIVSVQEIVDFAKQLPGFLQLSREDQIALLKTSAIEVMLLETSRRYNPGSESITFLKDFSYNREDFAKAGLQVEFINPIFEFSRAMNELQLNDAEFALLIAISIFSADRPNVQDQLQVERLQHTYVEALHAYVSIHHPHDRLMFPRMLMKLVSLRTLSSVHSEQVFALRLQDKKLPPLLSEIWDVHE
The data set is described as follows: Agonist activity at human LXRalpha transfected in HEK293T cells at 10 uM incubated for 20 hrs by luciferase reporter gene assay relative to control. In kind it is cell-based. The following applies: HEK293T cells transfected with human LXRalpha, read-out: FC.

Another data set deals with HEK-293T. Briefly: Cytotoxicity against HEK293T cells assessed as reduction in cell viability at […] incubated for 24 hrs by MTT assay. In kind it is cell-based. Particulars: human.
Data set [2] deals with RAW264.7. Briefly: Anti-atherosclerotic activity in mouse RAW264.7 cells assessed as inhibition of ox-LDL induced lipid accumulation at 10 uM incubated for 48 hrs by ORO staining based microscopic analysis. It counts as functional, cell-based.
Data set [3] can be described thus: Agonist activity at LXR in C57BL/6 mouse PBMC assessed as increase in sREBP-1c mRNA expression at 10 uM incubated for 48 hrs by qPCR analysis. (Quantitative PCR measures a nucleic acid by following its amplification.)
Data set [4] is described as follows: Agonist activity at LXR in mouse RAW264.7 cells assessed as increase in sREBP-1c mRNA expression at 10 uM incubated for 48 hrs by qPCR analysis. The following applies: raw264.7, 48 h. In kind it is cell-based.
Another data set deals with PBMC. Briefly: Effect on LXR mRNA expression in C57BL/6 mouse PBMC at 10 uM incubated for 48 hrs by qPCR analysis. In kind it is cell-based.
In the next data set the test system is HepG2. Briefly: Cytotoxicity against human HepG2 cells assessed as reduction in cell viability at 2 to 50 uM incubated for 24 hrs by MTT assay. In kind it is cell-based. Particulars: hepg2, 24 h.
Data set [5] has as its system 3T3-L1. Briefly: Anti-adipogenic activity in mouse 3T3L1 preadipocytes assessed as decrease in triglyceride accumulation. It counts as functional, cell-based.
Data set [6] has as its system 3T3-L1. The data set is described as follows: Anti-adipogenic activity in mouse 3T3L1 preadipocytes assessed as decrease in lipid accumulation by Oil Red O staining-based microscopic analysis. It counts as functional, cell-based.
A short description of data set [7]: Agonist activity at LXR in mouse 3T3L1 preadipocytes assessed as increase in ABCA1 mRNA expression at 10 uM by qPCR analysis. In kind it is cell-based.
The test system of data set [8] is 3T3-L1. Briefly: Cytotoxicity against mouse 3T3L1 preadipocytes assessed as reduction in cell viability at 2 to 50 uM incubated for 24 hrs by MTT assay. Particulars: 3t3-l1, 24 h. It counts as cell-based.
The test system of data set [9] is Mus musculus. The data set is described as follows: Anti-atherosclerotic activity in high fat diet-induced C57BL/6 mouse model of hypercholesterolemia assessed as reduction in serum total cholesterol level at 10 to 40 mg/kg, po administered for 12 weeks. It counts as functional, organism-based.
Data set [10] deals with Mus musculus. Briefly: Anti-atherosclerotic activity in high fat diet-induced C57BL/6 mouse model of hypercholesterolemia assessed as reduction in hepatic total cholesterol level at 10 to 40 mg/kg, po administered for 12 weeks. It counts as functional, organism-based.
For data set [11], the system named is Mus musculus. Briefly: Anti-atherosclerotic activity in high fat diet-induced C57BL/6 mouse model of hypercholesterolemia assessed as reduction in liver fat administered orally for 12 weeks by ORO staining based microscopic analysis. In kind it is functional, organism-based.
For data set [12], the system named is Mus musculus. Briefly: Anti-atherosclerotic activity in high fat diet-induced C57BL/6 mouse model of hypercholesterolemia assessed as increase in CYP7A1 mRNA expression in liver at 10 to 40 mg/kg, po administered for 12 weeks by RT-qPCR analysis. It counts as functional, organism-based.
Data set [13] has as its system Mus musculus. Briefly: Anti-atherosclerotic activity in high fat diet-induced C57BL/6 mouse model of hypercholesterolemia assessed as decrease in sREBP-1c mRNA expression in liver at 10 to 40 mg/kg, po administered for 12 weeks by RT-qPCR analysis. It counts as functional, organism-based.
Data set [14] has as its system Mus musculus. The data set is described as follows: Induction of hepatic steatosis in C57BL/6 mouse assessed as effect on serum LDL-C at 50 mg/kg/day, ig administered for 7 days. The following applies: in vivo, po, 168 h. In kind it is organism-based.
The test system of data set [15] is RAW264.7. Briefly: Cytotoxicity against mouse RAW264.7 cells assessed as reduction in cell viability at 2 to 50 µM incubated for 24 hrs by MTT assay. In kind it is cell-based. The following applies: raw264.7, 24 h. On the technique in general: Tetrazolium assays rely on reduction of a dye to a coloured formazan, in cell work by metabolically active cells.

As for `CC(C)C(=O)CC[C@@H](C)[C@H]1CC[C@H]2[C@@H]3C[C@H](O)[C@H]4C[C@H](O)CC[C@]4(C)[C@H]3CC[C@]12C`, the fold induction at 20 h, 10 µM in data set [1] stood at 4.27. Also, the Activity entry is “Non-Toxic” with HEK-293T; “Active” in [3]; “Not Active” in data set [4]; “Non-Toxic” in the data set on PBMC; “Non-Toxic” with HepG2; “Active” in [7]. Besides, the Activity result with 3T3-L1 [8] is “Non-Toxic”; in the data set on Mus musculus [11], “Dose-dependent effect”; in the data set with Mus musculus [14], “Non-Toxic”; in the data set with RAW264.7 [15], “Non-Toxic”. Further, the inhibition entry in the data set with RAW264.7 [2] was “Active”. Besides, the result in the data set with 3T3-L1 [5] and in the data set with 3T3-L1 [6] was inactive. The outcome with Mus musculus [9], in the data set on Mus musculus [10], in the data set with Mus musculus [12] and in the data set on Mus musculus [13] was Active.
